# Measurements published in patent US7118895B2, “Process for producing aglycon by using diglycosidase and flavor-improved food containing the aglycon and converting agent to be used in the process” (Amano Enzyme Inc., priority 2000, dated 2006).
# Test system: Crude diglycosidase
# Assay: Examination of substrate concentration in the conversion into isoflavone aglycons by diglycosidase using soybean materials;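 as to Decomposition efficiency: ratio of each glycoside/aglycon within its isoflavone family: percent of the isoflavone family total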
# Assay type: biochemical, Penicillium multicolor IAM7153
# Outline: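 Reaction at 55° C, shaken, pH 4.0 (20 mM acetate), using crude diglycosidase from a 1.88 AU/mL enzyme solution on soy flour, soymilk, defatted soybean or soy protein concentrate at 2, 5, 10, 20 or 30% (w/v). Isoflavone aglycons quantified by HPLC of ethanol extracts at 0, 1, 3, 6 h.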
compound,measurement,setting,value
"O=C(O)CC(=O)OC[C@H]1O[C@@H](Oc2cc(O)c3c(=O)c(-c4ccc(O)cc4)coc3c2)[C@H](O)[C@@H](O)[C@@H]1O [malonylgenistin, 6″-O-malonylgenistin]",Decomposition efficiency: ratio of each glycoside/aglycon within its isoflavone family,"roasted soy flour, substrate concentration 20%, heat treatment of enzyme no, reaction time 1 h",not detected
same,Decomposition efficiency: ratio of each glycoside/aglycon within its isoflavone family,"roasted soy flour, substrate concentration 20%, heat treatment of enzyme no, reaction time 3 h",not detected
same,Decomposition efficiency: ratio of each glycoside/aglycon within its isoflavone family,"roasted soy flour, substrate concentration 20%, heat treatment of enzyme no, reaction time 6 h",not detected
same,Decomposition efficiency: ratio of each glycoside/aglycon within its isoflavone family,"roasted soy flour, substrate concentration 20%, heat treatment of enzyme yes, reaction time 6 h",not detected
same,Decomposition efficiency: ratio of each glycoside/aglycon within its isoflavone family,"roasted soy flour, substrate concentration 30%, heat treatment of enzyme no, reaction time 0 h",not detected
same,Decomposition efficiency: ratio of each glycoside/aglycon within its isoflavone family,"roasted soy flour, substrate concentration 30%, heat treatment of enzyme no, reaction time 1 h",not detected
same,Decomposition efficiency: ratio of each glycoside/aglycon within its isoflavone family,"roasted soy flour, substrate concentration 30%, heat treatment of enzyme no, reaction time 3 h",not detected
same,Decomposition efficiency: ratio of each glycoside/aglycon within its isoflavone family,"roasted soy flour, substrate concentration 30%, heat treatment of enzyme no, reaction time 6 h",not detected
same,Decomposition efficiency: ratio of each glycoside/aglycon within its isoflavone family,"roasted soy flour, substrate concentration 30%, heat treatment of enzyme yes, reaction time 6 h",not detected
same,Decomposition efficiency: ratio of each glycoside/aglycon within its isoflavone family,"soymilk, substrate concentration 2%, heat treatment of enzyme no, reaction time 0 h",35.0%
same,Decomposition efficiency: ratio of each glycoside/aglycon within its isoflavone family,"soymilk, substrate concentration 2%, heat treatment of enzyme no, reaction time 1 h",15.3%
same,Decomposition efficiency: ratio of each glycoside/aglycon within its isoflavone family,"soymilk, substrate concentration 2%, heat treatment of enzyme no, reaction time 3 h",3.5%
same,Decomposition efficiency: ratio of each glycoside/aglycon within its isoflavone family,"soymilk, substrate concentration 2%, heat treatment of enzyme no, reaction time 6 h",0.0%
same,Decomposition efficiency: ratio of each glycoside/aglycon within its isoflavone family,"soymilk, substrate concentration 2%, heat treatment of enzyme yes, reaction time 6 h",49.5%
same,Decomposition efficiency: ratio of each glycoside/aglycon within its isoflavone family,"soymilk, substrate concentration 5%, heat treatment of enzyme no, reaction time 0 h",58.2%
same,Decomposition efficiency: ratio of each glycoside/aglycon within its isoflavone family,"soymilk, substrate concentration 5%, heat treatment of enzyme no, reaction time 1 h",24.9%
same,Decomposition efficiency: ratio of each glycoside/aglycon within its isoflavone family,"soymilk, substrate concentration 5%, heat treatment of enzyme no, reaction time 3 h",6.9%
same,Decomposition efficiency: ratio of each glycoside/aglycon within its isoflavone family,"soymilk, substrate concentration 5%, heat treatment of enzyme no, reaction time 6 h",2.1%
same,Decomposition efficiency: ratio of each glycoside/aglycon within its isoflavone family,"soymilk, substrate concentration 5%, heat treatment of enzyme yes, reaction time 6 h",52.5%
same,Decomposition efficiency: ratio of each glycoside/aglycon within its isoflavone family,"soymilk, substrate concentration 10%, heat treatment of enzyme no, reaction time 0 h",56.5%
same,Decomposition efficiency: ratio of each glycoside/aglycon within its isoflavone family,"soymilk, substrate concentration 10%, heat treatment of enzyme no, reaction time 1 h",31.5%
same,Decomposition efficiency: ratio of each glycoside/aglycon within its isoflavone family,"soymilk, substrate concentration 10%, heat treatment of enzyme no, reaction time 3 h",11.9%
same,Decomposition efficiency: ratio of each glycoside/aglycon within its isoflavone family,"soymilk, substrate concentration 10%, heat treatment of enzyme no, reaction time 6 h",4.8%
same,Decomposition efficiency: ratio of each glycoside/aglycon within its isoflavone family,"soymilk, substrate concentration 10%, heat treatment of enzyme yes, reaction time 6 h",51.2%
same,Decomposition efficiency: ratio of each glycoside/aglycon within its isoflavone family,"soymilk, substrate concentration 20%, heat treatment of enzyme no, reaction time 0 h",56.3%
same,Decomposition efficiency: ratio of each glycoside/aglycon within its isoflavone family,"soymilk, substrate concentration 20%, heat treatment of enzyme no, reaction time 1 h",37.6%
same,Decomposition efficiency: ratio of each glycoside/aglycon within its isoflavone family,"soymilk, substrate concentration 20%, heat treatment of enzyme no, reaction time 3 h",15.7%
same,Decomposition efficiency: ratio of each glycoside/aglycon within its isoflavone family,"soymilk, substrate concentration 20%, heat treatment of enzyme no, reaction time 6 h",10.7%
same,Decomposition efficiency: ratio of each glycoside/aglycon within its isoflavone family,"soymilk, substrate concentration 20%, heat treatment of enzyme yes, reaction time 6 h",51.0%
same,Decomposition efficiency: ratio of each glycoside/aglycon within its isoflavone family,"soymilk, substrate concentration 30%, heat treatment of enzyme no, reaction time 0 h",55.9%
same,Decomposition efficiency: ratio of each glycoside/aglycon within its isoflavone family,"soymilk, substrate concentration 30%, heat treatment of enzyme no, reaction time 1 h",42.5%
same,Decomposition efficiency: ratio of each glycoside/aglycon within its isoflavone family,"soymilk, substrate concentration 30%, heat treatment of enzyme no, reaction time 3 h",25.4%
same,Decomposition efficiency: ratio of each glycoside/aglycon within its isoflavone family,"soymilk, substrate concentration 30%, heat treatment of enzyme no, reaction time 6 h",17.1%
same,Decomposition efficiency: ratio of each glycoside/aglycon within its isoflavone family,"soymilk, substrate concentration 30%, heat treatment of enzyme yes, reaction time 6 h",50.0%
same,Decomposition efficiency of genistin family in defatted soybean,"substrate concentration 2%, heat treatment of enzyme no, reaction time 0 h",45.4
same,Decomposition efficiency of genistin family in defatted soybean,"substrate concentration 2%, heat treatment of enzyme no, reaction time 1 h",31.4
same,Decomposition efficiency of genistin family in defatted soybean,"substrate concentration 2%, heat treatment of enzyme no, reaction time 3 h",17.0
same,Decomposition efficiency of genistin family in defatted soybean,"substrate concentration 2%, heat treatment of enzyme no, reaction time 6 h",11.4
same,Decomposition efficiency of genistin family in defatted soybean,"substrate concentration 2%, heat treatment of enzyme yes, reaction time 6 h",41.8
same,Decomposition efficiency of genistin family in defatted soybean,"substrate concentration 5%, heat treatment of enzyme no, reaction time 0 h",43.9
same,Decomposition efficiency of genistin family in defatted soybean,"substrate concentration 5%, heat treatment of enzyme no, reaction time 1 h",38.0
same,Decomposition efficiency of genistin family in defatted soybean,"substrate concentration 5%, heat treatment of enzyme no, reaction time 3 h",29.6
same,Decomposition efficiency of genistin family in defatted soybean,"substrate concentration 5%, heat treatment of enzyme no, reaction time 6 h",19.0
same,Decomposition efficiency of genistin family in defatted soybean,"substrate concentration 5%, heat treatment of enzyme yes, reaction time 6 h",41.1
same,Decomposition efficiency of genistin family in defatted soybean,"substrate concentration 10%, heat treatment of enzyme no, reaction time 0 h",41.6
same,Decomposition efficiency of genistin family in defatted soybean,"substrate concentration 10%, heat treatment of enzyme no, reaction time 1 h",41.5
same,Decomposition efficiency of genistin family in defatted soybean,"substrate concentration 10%, heat treatment of enzyme no, reaction time 3 h",35.1
same,Decomposition efficiency of genistin family in defatted soybean,"substrate concentration 10%, heat treatment of enzyme no, reaction time 6 h",29.1
same,Decomposition efficiency of genistin family in defatted soybean,"substrate concentration 10%, heat treatment of enzyme yes, reaction time 6 h",39.4
